Test results as given in patent publication US8865909B2, “Anti-biofilm agents” (Yissum Research Development Company of the Hebrew …, priority 2008, dated 2014).

Legend:
V. harveyi strains [1] = experiment: MIC, broth dilution antibacterial susceptibility test; type: cell-based
Procedure: A series of V. harveyi strains (wild-type and mutants), marine bacteria which are used as a widely accepted model for testing quorum sensing, was used in the experiments below.
MIC was determined according to the CLSI, formerly NCCLS (National Committee for Clinical Laboratory Standards) recommendation for broth dilution antibacterial susceptibility test.
All the tested V. harveyi strains (adjusted to 0.5 MacFarlane standard suspension) were grown at 30° C., in the presence of the tested agent at concentrations ranging from 2 μM to 10 mM, in 96-well transparent micro-titration plates (NUNC, Denmark).
After 18 hours of incubation, bacterial growth was determined according to the density measured by absorbance at 595 nm (GENios reader TECAN-Austria).
Each experiment was conducted in triplicate samples and repeated three times. Based on MIC results, the exemplary anti-biofilm forming agent with the highest MIC values (lowest antibacterial activity) was selected for the anti-quorum sensing activity screening assay.

V. harveyi strains [2] = experiment: Quorum sensing inhibition (luminescence), planktonic conditions; type: cell-based; details: BB120, BB170, BB886, BB721, JAF375, with AI-1, AI-2 or AI-0 spent medium
Procedure: Mutant strains of V. harveyi, which are impaired at different locations of the quorum sensing (QS) cascade (see, Table 1 hereinabove) were used for the QSI assays. Bacteria were grown to cell density of 1.5-2.5×10^9 CFU/ml (15-16 hours) in AB medium at 30° C. with constant shaking. The fresh cultures were then diluted 5000-fold in fresh AB medium containing TZD10, an exemplary ABF agent according to embodiments of the present invention, at concentrations of 0.02, 0.2, 20 and 200 μM. […]
The assay was conducted in white 96-well microtitraton plates with a clear bottom (NUNC, Denmark). Luminescence was measured continuously by a GENios reader (TECAN, Austria) every 30 minutes and the bacterial density was determined (O.D. 595 nm).
Each sample was tested in three separate biological experiments, each conducted in triplicate samples. The effect of the ABF agent was determined relatively to the endogenous level of luminescence expressed by V. harveyi BB120, BB721, BB170, BB886 and JAF375 relative to the OD, by calculating the area under the curve (AUC) between 3.5-7 hours, applying the trapezoid rule for AUC calculation.

[3] = test system: V. harveyi wild-type strain (BB120) matured biofilms; experiment: Biofilm disruption by confocal scanning laser microscopy; type: cell-based; details: 2, 20, 200 μM (lower than MIC), 18 hours
Procedure: The biofilm eradication concentration (BEC) for exemplary ABF agents according to embodiments of the present invention was measured as the effect of the tested agent on mature and fully formed biofilm. The effect of TZD10, an exemplary ABF agent according to embodiments of the present invention, on the depth and the density of the biofilm was determined using fluorescent stains analyzed by computer image analysis using confocal scanning laser microscopy (CLSM). Briefly, biofilms were allowed to form in sterile micrtiture dishes as described hereinabove. After washing the formed biofilm, fresh AB medium and an appropriate medium containing TZD10 were added and incubated for additional 18 hours. Bacteria in biofilm were stained with fluorescent dyes to detect the biofilm. The stained biofilms were examined with a Zeiss LSM 410 confocal laser scanning system attached to a Zeiss Axiovert inverted microscope fitted with a 40×/1.3 Plan-Neofluar lens. In each experiment, exciting laser intensity, background level, contrast and electronic zoom size were maintained at the same level. At least 3 random fields for each experiment were chosen and scored from each sample. Biofilm structure was analyzed as a series of horizontal opto-digital sections. […]

Vero cells [4] = experiment: Vero cells detachment assay (96-well polystyrene plate, XTT); type: cell-based
Procedure: Vero cells (0.1 ml, 1.6×10^6 cells/ml) were plated in each well of flat 96-wells polystyrene plate (Nunc), and incubated overnight at 37° C. and 5% CO2. The cells were then incubated with various concentrations of the exemplary tested ABF agent TZD10. At the indicated time intervals, the cells were washed and re-suspended in fresh medium. XTT (2,3-bis-(2-methoxy-4-nitro-5-sulfophenyl)-2H-tetrazolium-5-carboxanilide) analysis was performed to determine the viability of the attached cells.

[5] = Solubility observed in the Vero cell assay wells; type: physicochemical; details: at a concentration of 100 μg/ml and above; crystals at bottom of well
Vero cells [6] = experiment: Vero cells detachment from T-flasks; type: cell-based; details: 100 μg/ml TZD10 + 1.34 mM EDTA in PBS, 40 minutes
Procedure: Vero cells were grown on for 6 days in T-flask with DMEM+10% FCS+Hepes+Glutamine+Pen-strep (Beit HaEmek). The cells were then washed with PBS and incubated for 40 minutes with 100 μg/ml TZD10+1.34 mM (about 0.5 mg/ml) EDTA in PBS without calcium and magnesium (Beit HaEmek).

MDCK cells = MDCK cells viability assay (XTT); type: cell-based, canine; details: 40 minutes + 120 minutes with XTT
Procedure: Madine-Derby canine kidney cells (MDCK) are a non-cancerous, polarized epithelial cell line, used in the research of cell polarity mechanisms, and in the research of pathogen interactions with epithelial tissues. These cells produce monolayers in which cells are polarized and tightly connected to each other. The cells were treated with TZD10 for 40 minutes without the XTT reagents that were then added for further 120 minutes incubation. The influence of TZD10 on the attachment of MDCK cells was investigated using an identical method used for the Vero cells (the 96 well polystyrene plate method) as presented hereinabove.

Question: With CCCCCCCCC/C=C1\SC(=O)NC1=O [TZD10, (Z)-5-decylidenethiazolidine-2,4-dione] as the molecule, how does the antibacterial activity (V. harveyi strains [1]; V. harveyi mutants and wild-type) read?
Answer: Its antibacterial activity is “lack of antibacterial activity per se”.

Question: And the MIC (V. harveyi strains [1]; Vibrio harveyi)?
Answer: Its MIC is under 10 mM.

Question: What about the MIC (V. harveyi strains [1]; strain BB120 (wild-type)) of the same molecule?
Answer: The MIC was under 10 mM.

Question: And the MIC (V. harveyi strains [1]; strain BB170 (sensor 1-, sensor 2+))?
Answer: Its MIC is under 10 mM.

Question: And the MIC (V. harveyi strains [1]; strain BB721 (LuxO null))?
Answer: Its MIC is under 10 mM.

Question: What about the MIC (V. harveyi strains [1]; strain BB886 (sensor 1+, sensor 2-)) of the same molecule?
Answer: Its MIC is under 10 mM.

Question: And the “effect on quorum sensing (luminescence)” value (V. harveyi strains [2])?
Answer: Its value is “classic dose-response curve”.

Question: What about the biofilm disruption [3] of the same molecule?
Answer: Its biofilm disruption is “dose response effect of biofilm disruption”.

Question: And the “cell viability after detachment assay” value (Vero cells [4]; 50 μg/ml, overnight incubation)?
Answer: The value was “most of the cells are still viable”.

Question: And the cell detachment (Vero cells [4]; 100 μg/ml, 30 minutes)?
Answer: The cell detachment was “most of the cells were detached”.

Question: What about the cell detachment (Vero cells [4]; 200 μg/ml, 5 minutes) of the same molecule?
Answer: Its cell detachment is “most of the cells were detached”.

Question: What about the solubility [5] of the same molecule?
Answer: Its solubility is “not completely soluble”.

Question: And the “cell release from T-flask” value (Vero cells [6])?
Answer: The value was “could be released from the flask by pipettetion”.

Question: What about the “toxicity compared with Vero cells” value (MDCK cells) of the same molecule?
Answer: The value was “more toxic to MDCK cells than to Vero cells”.
